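Test compounds were applied to cells in 96-well plates for 48 hours at 5 doses. Here, GI50 denotes the concentration required for 50% inhibition of growth.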 Activity calls are given as the source filed them. Rule as the data show it: active = GI50 up to about 1.1 µM and inactive = higher.
Legend:
Assay in all cases: growth of human tumour cells (NCI), 48 h
UO-31 = test system: UO-31
SK-MEL-2 = test system: SK-MEL-2
HT-29 = test system: HT-29
SK-MEL-28 = test system: SK-MEL-28
U-251 = test system: U-251
NCI-H522 = test system: NCI-H522
SK-OV-3 = test system: SK-OV-3
A498 = test system: A498
COLO 205 = test system: COLO 205
SNB-19 = test system: SNB-19
SN12C = test system: SN12C
SNB-75 = test system: SNB-75
Malme-3M = test system: Malme-3M
MOLT-4 = test system: MOLT-4
SR = test system: SR
HCC 2998 = test system: HCC 2998

| Compound | GI50 (UO-31) | GI50 (SK-MEL-2) | GI50 (HT-29) | GI50 (SK-MEL-28) | GI50 (U-251) | GI50 (NCI-H522) | GI50 (SK-OV-3) | GI50 (A498) | GI50 (COLO 205) | GI50 (SNB-19) | GI50 (SN12C) | GI50 (SNB-75) | GI50 (Malme-3M) | GI50 (MOLT-4) | GI50 (SR) | GI50 (HCC 2998) |
| --- | --- | --- | --- | --- | --- | --- | --- | --- | --- | --- | --- | --- | --- | --- | --- | --- |
| CCN(CC)Cc1cc(Nc2c3ccccc3nc3c4ccccc4n(C)c23)ccc1O | 9.95 µM (inactive) | 20.7 µM (inactive) | 5.32 µM (inactive) | 4.43 µM (inactive) | 10.8 µM (inactive) | 2.58 µM (inactive) | 16.7 µM (inactive) | 13.7 µM (inactive) | 4.73 µM (inactive) | 16.7 µM (inactive) | 13.9 µM (inactive) | 13.6 µM (inactive) | 13.7 µM (inactive) | 2.77 µM (inactive) |  |  |
| O=c1[nH]ccc(CNC23CC4CC(CC(C4)C2)C3)c1O | 88.3 µM (inactive) | > 100 µM (inactive) | > 100 µM (inactive) |  | > 100 µM (inactive) | 24.8 µM (inactive) | > 100 µM (inactive) | > 100 µM (inactive) | > 100 µM (inactive) | > 100 µM (inactive) | 45.8 µM (inactive) | > 100 µM (inactive) | > 100 µM (inactive) | 55.7 µM (inactive) | 45.2 µM (inactive) | > 100 µM (inactive) |
| CC(C)(Oc1ccc(C(=O)c2ccc(Cl)cc2)cc1Cl)C(=O)N1CCN(c2ccccc2)CC1 | 46.9 µM (inactive) | > 100 µM (inactive) | > 100 µM (inactive) | > 100 µM (inactive) | > 100 µM (inactive) | 59 µM (inactive) | > 100 µM (inactive) | > 100 µM (inactive) |  | > 100 µM (inactive) |  |  | > 100 µM (inactive) | > 100 µM (inactive) | 66.1 µM (inactive) |  |
| COc1cc2c(c(OC)c1OC)-c1ccc(SC)c(=O)cc1[C@@H](NC(=O)c1ccc(Cl)cc1)CC2 | 0.0196 µM (active) | < 0.01 µM (active) | < 0.01 µM (active) | 13.9 µM (inactive) | < 0.01 µM (active) |  |  | < 0.01 µM (active) | < 0.01 µM (active) | < 0.01 µM (active) | < 0.01 µM (active) | 2.16 µM (inactive) | < 0.01 µM (active) | < 0.01 µM (active) | < 0.01 µM (active) | < 0.01 µM (active) |
| CC(C)c1cccc(C(C)C)c1NC(=O)/C(Cc1nc2ccc(Cl)cc2nc1O)=N\NC(=O)C[N+](C)(C)C | 76.7 µM (inactive) | > 100 µM (inactive) | > 100 µM (inactive) | > 100 µM (inactive) |  | > 100 µM (inactive) | > 100 µM (inactive) | > 100 µM (inactive) | > 100 µM (inactive) | > 100 µM (inactive) | > 100 µM (inactive) |  | > 100 µM (inactive) | > 100 µM (inactive) | > 100 µM (inactive) | > 100 µM (inactive) |
| CC(C)(C)C1=CC(=NNC(=S)NCc2ccccc2)C=C(C(C)(C)C)C1=O | 52 µM (inactive) | > 100 µM (inactive) | 73.1 µM (inactive) | > 100 µM (inactive) | 94.2 µM (inactive) |  |  | 77.4 µM (inactive) | 51.5 µM (inactive) | 71 µM (inactive) | 92.5 µM (inactive) | 27.9 µM (inactive) | > 100 µM (inactive) | 66.1 µM (inactive) | > 100 µM (inactive) | 53.7 µM (inactive) |
| CC(N)C(=O)OCN1C(=O)C2C3C=CC(C2C1=O)C1C2C(=O)N(COC(=O)C(C)N)C(=O)C2C31 (stereo not drawn) | 56.4 µM (inactive) | 20.6 µM (inactive) | 34.6 µM (inactive) | 21.9 µM (inactive) | 24.5 µM (inactive) |  | 53.1 µM (inactive) |  | 19.4 µM (inactive) | 52.2 µM (inactive) | 25.6 µM (inactive) | 25.6 µM (inactive) |  | 21.5 µM (inactive) | 5.57 µM (inactive) | 43.1 µM (inactive) |
| COc1ccc(Br)c(N/N=C2\CCCNC2=O)c1 | 32.1 µM (inactive) | > 100 µM (inactive) | > 100 µM (inactive) | > 100 µM (inactive) | 86.3 µM (inactive) | 58.5 µM (inactive) | 81.3 µM (inactive) |  | 48 µM (inactive) | > 100 µM (inactive) | > 100 µM (inactive) | 23.1 µM (inactive) | > 100 µM (inactive) | 69 µM (inactive) | 4.71 µM (inactive) | > 100 µM (inactive) |
| COc1ccc2oc3cccc(NCCN(C)C)c3c(=O)c2c1 | 8.3 µM (inactive) | 16.5 µM (inactive) | 7.83 µM (inactive) | 18.2 µM (inactive) | 12.7 µM (inactive) |  | 15.2 µM (inactive) | 19.1 µM (inactive) | 5.6 µM (inactive) | 14.3 µM (inactive) | 11 µM (inactive) | 15.3 µM (inactive) | 15.6 µM (inactive) | 4.01 µM (inactive) | 8.85 µM (inactive) | 8.65 µM (inactive) |
| C=CCc1cc2cccc(OC)c2oc1=O | 1.19 µM (inactive) | > 100 µM (inactive) | > 100 µM (inactive) | > 100 µM (inactive) | > 100 µM (inactive) | 6.9 µM (inactive) |  | > 100 µM (inactive) | > 100 µM (inactive) | > 100 µM (inactive) | > 100 µM (inactive) | 87.5 µM (inactive) | > 100 µM (inactive) | 63.4 µM (inactive) | 44.3 µM (inactive) | > 100 µM (inactive) |
| CCOC(=O)C1=C(NC(C)(C)C)OCC1=O | > 100 µM (inactive) | > 100 µM (inactive) | > 100 µM (inactive) | > 100 µM (inactive) | > 100 µM (inactive) | > 100 µM (inactive) | > 100 µM (inactive) |  | > 100 µM (inactive) | > 100 µM (inactive) | > 100 µM (inactive) | > 100 µM (inactive) | > 100 µM (inactive) | > 100 µM (inactive) | > 100 µM (inactive) | > 100 µM (inactive) |
| Cc1ccc(C(=O)NC2CCCCC2)cc1/N=N/N(C)C | > 100 µM (inactive) | > 100 µM (inactive) | > 100 µM (inactive) | > 100 µM (inactive) | > 100 µM (inactive) | 74 µM (inactive) |  |  |  | > 100 µM (inactive) | > 100 µM (inactive) |  |  |  |  | > 100 µM (inactive) |
| COC(=O)/N=C(\NC(=O)OC)Nc1ccc(Oc2ccccc2)cc1NC=O | 0.871 µM (active) |  | 0.348 µM (active) |  | 0.333 µM (active) | 0.253 µM (active) | 0.215 µM (active) | 0.294 µM (active) | 0.2 µM (active) | > 100 µM (inactive) | 1.58 µM (inactive) | 0.421 µM (active) | 0.579 µM (active) | 0.836 µM (active) |  | 0.968 µM (active) |
| C=C1C2CCCC1C1(S(C)(=O)=O)CCCCC21O (stereo not drawn) | > 100 µM (inactive) | > 100 µM (inactive) | > 100 µM (inactive) | > 100 µM (inactive) | > 100 µM (inactive) | > 100 µM (inactive) | > 100 µM (inactive) |  | > 100 µM (inactive) | > 100 µM (inactive) | > 100 µM (inactive) | > 100 µM (inactive) | > 100 µM (inactive) | > 100 µM (inactive) | > 100 µM (inactive) | > 100 µM (inactive) |
| CC1(C)SCc2nc3ncccc3n21 | > 100 µM (inactive) | > 100 µM (inactive) | > 100 µM (inactive) | > 100 µM (inactive) | > 100 µM (inactive) | > 100 µM (inactive) | > 100 µM (inactive) | > 100 µM (inactive) | > 100 µM (inactive) |  | > 100 µM (inactive) | > 100 µM (inactive) | > 100 µM (inactive) | > 100 µM (inactive) |  | > 100 µM (inactive) |
| O=C1CCC2(c3ccccc3)Nc3ccccc3N12 (stereo not drawn) | > 100 µM (inactive) | > 100 µM (inactive) | > 100 µM (inactive) | > 100 µM (inactive) | > 100 µM (inactive) | > 100 µM (inactive) |  | > 100 µM (inactive) | > 100 µM (inactive) |  | > 100 µM (inactive) | > 100 µM (inactive) | > 100 µM (inactive) | > 100 µM (inactive) |  | > 100 µM (inactive) |
| CCC1OCCN1C(C)C (stereo not drawn) | 96.6 µM (inactive) | > 100 µM (inactive) |  | 32.8 µM (inactive) | > 100 µM (inactive) | 85.5 µM (inactive) | > 100 µM (inactive) | > 100 µM (inactive) | > 100 µM (inactive) | > 100 µM (inactive) | > 100 µM (inactive) |  | 65.2 µM (inactive) | > 100 µM (inactive) | > 100 µM (inactive) | > 100 µM (inactive) |
| C[C@]12Cc3cn[nH]c3C(=O)C1CC[C@@H]1C2CC[C@@]2(C)C1CC[C@@H]2O (stereo partly drawn) | > 100 µM (inactive) | 1.23 µM (inactive) | > 100 µM (inactive) | > 100 µM (inactive) | > 100 µM (inactive) | > 100 µM (inactive) | > 100 µM (inactive) | > 100 µM (inactive) | > 100 µM (inactive) | > 100 µM (inactive) | > 100 µM (inactive) | > 100 µM (inactive) | > 100 µM (inactive) | > 100 µM (inactive) |  |  |
| Sc1ncnc2c1ncn2C1CCCO1 (stereo not drawn) | > 100 µM (inactive) | > 100 µM (inactive) | > 100 µM (inactive) | > 100 µM (inactive) | > 100 µM (inactive) | 64.6 µM (inactive) | 35.8 µM (inactive) | > 100 µM (inactive) | > 100 µM (inactive) | > 100 µM (inactive) | > 100 µM (inactive) | 65.3 µM (inactive) | > 100 µM (inactive) | > 100 µM (inactive) |  | > 100 µM (inactive) |
| CCCCCCCCCCCCCCCCCCOCC1(COP(=O)([O-])OCC[N+](C)(C)C)CCCO1 (stereo not drawn) | 10.2 µM (inactive) | 10.9 µM (inactive) | 4.41 µM (inactive) | 18.2 µM (inactive) | 2.33 µM (inactive) | 1.96 µM (inactive) | 14.4 µM (inactive) | 3.46 µM (inactive) | 1.87 µM (inactive) | 3.7 µM (inactive) | 2.2 µM (inactive) | 5.56 µM (inactive) | 13.3 µM (inactive) | 2.2 µM (inactive) |  | 1.89 µM (inactive) |

— ChEMBL document CHEMBL1201862, “PubChem BioAssay data set” (2004)
